Reference: US9359322B2, “C-linked glucuronide of N-(4-hydroxybenzyl) retinone, analogs thereof, and methods of using the same to inhibit neoplastic cell growth” (Wisconsin Alumni Research Foundation, priority 2005, dated 2016)
Marks after values point to notes of the source that are not given here. One block for each molecule: values may come before it.

Columns and labels:
[1] = Plasma triglyceride measurement; type: in vivo, rat; conditions: 2 mmol/kg diet, 22 days; FIG. 2A
Procedure: Plasma Triglyceride Measurement. Bloods were drawn from anesthetized animals in the presence of EDTA as an anticoagulant, and the resulting plasma was used for the measurement of plasma “true” triglyceride levels using a kit from Sigma-Aldrich (Saint Louis, Mo.). Briefly, the total plasma triglyceride and glycerol concentrations were determined, and the glycerol component was subtracted from the total plasma triglyceride measurement to obtain the “true” serum triglyceride concentration.

[2] = system: CYP26A1 mRNA; assay: Induction of CYP26A1 mRNA in liver (Q-PCR); type: in vivo, rat; conditions: at sacrifice, retinoid-fed rats, 2 mmol/kg diet; FIG. 4
[3] = Terminal plasma drug levels (plasma retinoid assay, HPLC); type: in vivo, rat; conditions: female, Sprague-Dawley, rat, plasma, oral; day 22 of treatment; 2 mmol/kg diet; ± SEM; read-out: Plasma retinoid concentration (terminal plasma drug level)
Procedure: Plasma Retinoid Assay. To 500 μL of plasma was added 150 μL of ethanol containing 0.75 μg of internal standard (N-(4-chlorophenyl) retinamide). After mixing 30 sec., 500 μL of ethyl acetate was added followed by 1 min. of mixing and centrifugation for 5 minutes at 1000 rpm in an IEC CL centrifuge. The ethyl acetate layer was removed and syringe filtered through a 0.45 um filter. The ethyl acetate extraction was repeated two more times. The combined extracts were evaporated and the residue reconstituted in 100 μL of methanol. The methanol extract (20 μL) was analyzed by HPLC on a Beckman Instruments model 127 instrument equipped with a model 166 UV detector. Chromatography was done on a precolumn equipped 250×4.6 mm Bechman Ultrasphere ODS column with an 85% methanol/water mobile phase (both containing 10 mM ammonium acetate) flowing at 1 mL/min. Analysis for both internal standard and retinol was conducted at 350 nm and internal standard recoveries and retinol levels were determined by comparison with standard curves, with adjustment of the retinol level based on recovery. Recoveries of internal standard averaged ca. 78%. […] In the 4-HPR treated group, plasma levels of this retinoid were evaluated simultaneously in the same samples as above. In order to avoid interfering substances, plasma treatment retinoid levels for RA and 4-HBRCG were measured using the above system and a step gradient of 75% methanol for 15 min. followed by 85% methanol for 40 minutes.

[4] = Body weight change during retinoid feeding; type: in vivo, rat; conditions: 2 mmol/kg diet
Procedure: (§1) Animal Studies: Mammary tumors were induced by intragastric intubation of 50-day old female Sprague-Dawley rats (Harlan Industries, Indianapolis, Ind.) with a single dose of 15 mg DMBA in 1.0 ml of sesame oil per rat. The rats were then maintained on a powdered Teklad 22/5 rodent chow diet (W) 8640 (Harlan Industries, Indianapolis, Ind.), and allowed food and water ad libitum. Four months later, rats which had developed palpable tumors were randomly assigned to the experimental groups (4 rats/group). The retinoid-treated groups were fed diets supplemented with 2 mmol/kg diet of atRA, 4-HPR, or 4-HBRCG, respectively. The retinoids were added to the diet in a vehicle consisting of 25 ml of ethanol: tricaprylin (1:4 v/v) plus 2% (w/v) of α-tocopherol as previously described.^9 This vehicle was also added to the control diet. The additives were blended into the chow diets using a Hobart food mixer. The diets were fed in stainless steel feeders designed with food hoppers. The food was replaced weekly with freshly prepared diets. Food consumption was determined once weekly, and from that the average daily consumption/rat was estimated. These diets were continuously fed for 22 days. Animals were also weighted weekly and monitored for general health status and signs of possible toxicity due to treatment.
(§2) Baseline measurement of initial tumor sizes, numbers and rat body weights were determined immediately before commencement of treatments, and final measurements were recorded just prior to sacrifice of the animals. Animals were palpated for tumors twice weekly and tumor diameters were measured weekly by a micrometer caliper. Tumor volumes were calculated using the formula [V= 4/3 πr^3] where r is one-half the mean of the sum of the largest diameter and the axis at right angle to it. All tumors as well as lungs, liver, kidney and femur were excised at the end of the experiment for chemical and histopathological evaluation. Blood samples were also taken from each animal for determination of plasma retinol and triglyceride levels.

[5] = Femur bone mineral content; type: in vivo, rat; conditions: end of feeding study; FIG. 2B
Excerpt: Bone Mineral Content. The femur was disarticulated from the leg, and the adhering soft tissue was removed by dissection. Femurs were scanned using the Lunar PIXImus 2 system (Model X2608, General Electric using the LUNAR software version 1.45), and control measurements were made using the small animal quality control phantom. Femurs were scanned 5 times each with re-positioning at each measure. The average value of the bone mineral content (BMC) in grams for each animal is reported as one independent measure.

[6] = system: CYP26B1 mRNA; assay: Induction of CYP26B1 mRNA in lung (Q-PCR); type: in vivo, rat; conditions: at sacrifice, retinoid-fed rats, 2 mmol/kg diet; data not shown
[7] = system: DMBA-induced rat mammary tumor; assay: DMBA-induced rat mammary tumor model, retinoid-containing diets; type: in vivo
Procedure: Preliminary evaluation of the mammary tumor chemotherapeutic activity of 4-HBRCG (7) was conducted, and its toxicity profile was also assessed. As previously described,^7, 12 tumor-bearing female rats (treated ca. 50 days earlier with 7,12-dimethylbenz(a)anthracene [DMBA]) were fed the control or retinoid-containing diets (RA (2), 4-HPR (3) or 4-HBRCG (7)) at 2 mmole/kg diet for 22 days.
as §1, §2

[8] = system: nuclear retinoic acid receptors (RAR); conditions: cited from earlier work
[9] = system: MCF-7 human breast cancer cells; assay: Growth inhibition of MCF-7 human breast cancer cells; type: cell-based; conditions: 10^−5 M, 8-day period
Procedure: Inhibition of MCF-7 human breast cancer cell growth over an 8-day period was used as a means to assess the activity of 4-HBRCG and the analog 4-HBRCGlucose.
Growth inhibition of MCF-7 human breast cancer cells. MCF-7 cells were obtained from the American Type Culture Collection, Manassas, Va. They were maintained in DMEM medium supplemented with 4 g/L glucose, 3.7 g/L sodium bicarbonate and 10% heat-inactivated fetal calf serum. Cells were passaged into 12-well plates, cultured for 24 hours, after which time they were dosed with vehicle (0.2% ethanol) or retinoids; medium was changed and fresh vehicle or retinoids were added daily. Cells were harvested and the number of live cells was assessed using fluorescein diacetate, which yields a fluorescent product upon cleavage by metabolically active cells. Using fluorescent microscopy, at least 200 cells/well were counted with a hemacytometer.

[10] = biological target: T1, RARα (Homo sapiens, UniProt P10276); assay: Nuclear retinoid receptor binding assay; conditions: 4-HBRCG up to 10^−4.5 M; data not shown
T1 sequence (P10276 1-462): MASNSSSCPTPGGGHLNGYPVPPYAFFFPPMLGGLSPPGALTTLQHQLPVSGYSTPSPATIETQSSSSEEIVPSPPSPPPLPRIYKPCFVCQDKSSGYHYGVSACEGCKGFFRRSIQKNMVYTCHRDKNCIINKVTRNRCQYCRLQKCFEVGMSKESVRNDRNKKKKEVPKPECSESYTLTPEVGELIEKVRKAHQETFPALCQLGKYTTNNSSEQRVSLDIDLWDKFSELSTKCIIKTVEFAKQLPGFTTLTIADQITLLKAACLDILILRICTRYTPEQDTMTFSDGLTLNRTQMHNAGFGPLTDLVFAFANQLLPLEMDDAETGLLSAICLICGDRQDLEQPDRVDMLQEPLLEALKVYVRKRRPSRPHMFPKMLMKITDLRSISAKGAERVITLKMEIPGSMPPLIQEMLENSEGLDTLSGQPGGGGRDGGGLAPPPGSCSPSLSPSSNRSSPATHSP

[11] = biological target: T2, RARγ (Homo sapiens, UniProt P13631); assay: Nuclear retinoid receptor binding assay, competition with [3H]all-trans RA; conditions: FIG. 3B
T2 sequence (P13631 1-454): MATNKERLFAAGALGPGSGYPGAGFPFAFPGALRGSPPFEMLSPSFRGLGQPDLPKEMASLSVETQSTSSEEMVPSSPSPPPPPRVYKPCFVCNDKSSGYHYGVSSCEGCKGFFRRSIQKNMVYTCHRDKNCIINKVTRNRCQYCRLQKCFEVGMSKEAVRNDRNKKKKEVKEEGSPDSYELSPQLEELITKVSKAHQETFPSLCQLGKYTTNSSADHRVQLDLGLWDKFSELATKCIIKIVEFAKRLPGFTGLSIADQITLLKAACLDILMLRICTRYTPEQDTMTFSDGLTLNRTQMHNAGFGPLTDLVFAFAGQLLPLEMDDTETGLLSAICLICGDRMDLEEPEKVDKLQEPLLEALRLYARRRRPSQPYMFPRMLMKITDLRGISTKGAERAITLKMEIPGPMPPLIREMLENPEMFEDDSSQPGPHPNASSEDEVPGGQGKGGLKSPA
Procedure: (§3) Nuclear Retinoid Receptor Binding Assay. Competition of 3 and 7 and 4-HBRCGlucose with [^3H]-all-trans-RA (4.2-4.6 nM) for binding to RARβ and RARγ and with [^3H]-9-cis RA (1.9 nM) for binding to RXRγ was determined using an in vitro ligand binding assay.^41, 42 [^3H]-all-trans-RA (40.5 Ci/mmole) or [^3H]-9-cis-RA (69.4 Ci/mmole) was added to receptor-containing extracts in the absence and presence of increasing concentrations of competing ligands at 4° C. for 3 hr. A hydroxylapatite (HAP) assay was used to separate ligand bound to receptor from that free in solution, and the radioactivity associated with the HAP pellet was measured by scintillation counting.

[12] = biological target: T3, RARβ (Homo sapiens, UniProt P10826); assay: as above; conditions: FIG. 3A
T3 sequence (P10826 1-455): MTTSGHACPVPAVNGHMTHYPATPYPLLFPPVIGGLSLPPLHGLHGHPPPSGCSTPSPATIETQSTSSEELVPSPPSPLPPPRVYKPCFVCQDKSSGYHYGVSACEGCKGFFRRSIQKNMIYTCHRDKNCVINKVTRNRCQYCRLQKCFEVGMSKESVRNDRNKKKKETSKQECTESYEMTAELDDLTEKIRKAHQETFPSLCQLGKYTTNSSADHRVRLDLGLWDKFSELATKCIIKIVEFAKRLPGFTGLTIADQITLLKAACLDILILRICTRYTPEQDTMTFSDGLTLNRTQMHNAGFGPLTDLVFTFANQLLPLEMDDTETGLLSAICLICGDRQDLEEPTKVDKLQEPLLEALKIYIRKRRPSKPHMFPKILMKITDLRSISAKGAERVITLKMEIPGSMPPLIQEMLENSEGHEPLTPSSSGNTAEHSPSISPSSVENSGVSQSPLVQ
Procedure: as §3

[13] = biological target: T4, RXRγ (Homo sapiens, UniProt P48443); assay: Nuclear retinoid receptor binding assay, competition with [3H]9-cis RA; conditions: 4-HBRCG up to 10^−4.5 M; data not shown
T4 sequence (P48443 1-463): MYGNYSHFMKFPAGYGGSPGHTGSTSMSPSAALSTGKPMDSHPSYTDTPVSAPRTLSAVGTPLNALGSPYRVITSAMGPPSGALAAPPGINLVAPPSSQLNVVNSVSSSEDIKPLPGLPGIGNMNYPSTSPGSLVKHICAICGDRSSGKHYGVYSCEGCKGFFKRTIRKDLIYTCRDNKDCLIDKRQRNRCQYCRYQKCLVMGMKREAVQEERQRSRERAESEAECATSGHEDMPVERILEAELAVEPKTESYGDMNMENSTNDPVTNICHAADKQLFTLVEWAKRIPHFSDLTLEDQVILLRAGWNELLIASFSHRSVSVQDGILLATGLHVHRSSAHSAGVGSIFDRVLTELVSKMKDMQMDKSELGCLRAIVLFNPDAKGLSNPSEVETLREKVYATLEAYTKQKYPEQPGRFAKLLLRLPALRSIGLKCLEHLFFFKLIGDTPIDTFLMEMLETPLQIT
Procedure: as §3

[14] = number of individual tumors, 2 mmol/kg diet, 22 days

concentration at 22 day [3]: 300 ± 100 ng/mL | Effect on femur bone mineral content vs control [5]: significant reduction in femur BMC
SMILES: CC1=C(/C=C/C(C)=C/C=C/C(C)=C/C(=O)O)C(C)(C)CCC1 [Retinoic acid (2), all-trans retinoic acid]
Effect on serum triglyceride concentration [1]: dramatically increased serum triglyceride concentration | Induction of CYP26A1 mRNA in liver [2]: 67 fold above control | Effect on normal body weight gain ([4]; feeding period): significant reduction in normal body weight gain | % Weight change ([4]; relative to baseline body weight over 22 days): +0.2 ^d % | Induction of CYP26B1 mRNA in lung [6]: 46 fold above control | % Change in tumor volume from baseline ([7]; 2 mmol/kg diet for 22 days): −38 ^d % | Final tumor volume ([7]; 2 mmol/kg diet for 22 days, mean ± SEM): 0.05 ± 0.02 cm^3 | Initial tumor volumes ([7]; baseline before treatment, mean ± SEM): 0.08 ± 0.03 cm^3 | Complete regression (tumors that totally disappeared) [7, 14]: 1 | No effect [7, 14]: 1 | Partial regression (tumors with 25-75% decrease in volume) [7, 14]: 8 | New tumors ([7]; number of tumors, 2 mmol/kg diet, 22 days): 0

SMILES: CC1=C(/C=C/C(C)=C/C=C/C(C)=C/C(=O)Nc2ccc(CC3OC(C(=O)O)C(O)C(O)C3O)cc2)C(C)(C)CCC1 (stereo not shown) [compound 6, N-(4-hydroxyphenyl) retinamide-C-glucuronide]
Affinity for binding to nuclear RAR relative to RA [8]: low affinity relative to RA

SMILES: CC1=C(/C=C/C(C)=C/C=C/C(C)=C/C(=O)Nc2ccc(O[C@@H]3O[C@H](C(=O)O)[C@@H](O)[C@H](O)[C@H]3O)cc2)C(C)(C)CCC1 [compound 5, N-(4-hydroxyphenyl) retinamide-O-glucuronide]
Affinity for binding to nuclear RAR relative to RA [8]: low affinity relative to RA

Binding to RARα [10]: binds poorly | Binding to RARγ [11]: binds poorly | Binding to RARβ [12]: binds poorly | Competition for [3H]9-cis RA binding to RXR [13]: binds poorly
SMILES: CC1=C(/C=C/C(C)=C/C=C/C(C)=C/C(=O)Cc2ccc(C[C@@H]3O[C@H](CO)[C@@H](O)[C@H](O)[C@H]3O)cc2)C(C)(C)CCC1 [4-HBRCGlucose, 2,6-Anhydro-7-deoxy-7-[4-(retinoylmethyl)-phenyl]-D-glycero-D-gulo-heptinol]
State of MCF-7 cells at end of assay [9]: the majority of the MCF-7 cells were dead at the end of the assay | Effect on number of live MCF-7 cells ([9]; FIG. 5): reduction in the number of live cells
